Data set [1] can be described thus: solubility data curation, three-parameter van't Hoff consensus. It counts as physicochemical. To be noted: methanol, van't Hoff fit to data of refs 21, 26. The text has this: The dataset characterizing edaravone solubility is an accumulation of values collected from available literature sources augmented with a series of new measurements reported in this paper, which are summarized in Supplementary Section S1. There are three accounts documenting the temperature-dependent solubility of the titled compound in fifteen neat solvents including alcohols, esters, some aprotic solvents, and water. Moreover, nine binary solvent mixtures were used for EDA dissolution measurements at a range of temperatures with a variety of binary compositions. […] First of all, one can notice serious divergences in the reported solubility values for some systems. This inconsistency prohibits the direct use of such a collection for the training of models due to the inherent noise in the dataset, which is a frequently occurring problem intrinsic to diverse measurement protocols. […] Secondly, the solubility space is not represented uniformly due to different numbers of measurements for dissimilar temperature ranges and concentrations of solvent mixtures, which might overrepresent those systems studied more extensively in the dataset. Finally, the main focus in solubility determination was narrowed to polar protic solvents, with very limited representation of non-protic or diprotic solvents. To address the first two issues, the final collection was cured using commonly accepted model equations by fitting their parameters based on experimental mole fractions. Here, the three-parameter van’t Hoff and Jouyban–Acree equations were used for neat and binary solvents, respectively. In addition, temperature standardization was performed for a uniform representation of solubility in the final dataset. […] The complete list of experimental solubility data is provided in the Supporting Materials (see Section S2). As can be directly inferred from the plots presented in Figure 1, incongruences appear not only in the solubility values but also in their temperature trends. […] Since only an arbitrary decision would allow the rejection of either of the measurement series, the final solubility dataset was constructed based on the predictions of the van’t Hoff equation, parametrized using all available experimental data. Moreover, temperature normalization was adopted by accepting data between 0 °C and 50 °C with 5 °C intervals. […] Fortunately, the majority of saturated EDA systems studied suffered experimentally from much smaller deviations, as detailed in the Supplementary Materials (see Section S2.1), and the ones presented in Figure 1 show the worst extremes.
The datasets used for model development underwent curing and unification. All solubility data in neat solvents were analyzed using a simple thermodynamic model relying on the fundamental van’t Hoff equation extended for the temperature dependence of the equilibrium constant by a polynomial fit. The following equation (1) lnxEcur=A+B/T+C/T^2 has three adjustable parameters, the values of which were computed by minimizing root mean square deviations (RMSD) between experimental and computed values. The collection of obtained parameter values for all analyzed systems (including literature data), along with graphical illustrations, is provided in the Supplementary Materials (see Section S2, Table S3 and Figure S2).

For data set [2] the following is noted: poor aqueous solubility; no reference given; cited from earlier work.

In the case of `CC1=NN(c2ccccc2)C(=O)C1` [Edaravone, 5-methyl-2-phenyl-4H-pyrazol-3-one], the “log(x1consensus)” value in data set [1] (x2*=1.00, 0 °C) is listed as -1.93; in data set [1] (x2*=1.00, 5 °C), -1.87; in data set [1] (x2*=1.00, 10 °C) it was -1.80; in data set [1] (x2*=1.00, 15 °C), -1.73; in data set [1] (x2*=1.00, 20 °C) it was -1.66. The “Biopharmaceutics Classification System (BCS) category” value in data set [2] is on record as “Class IV”.

These data come from PMC10574143, “Exploring the Solubility Limits of Edaravone in Neat Solvents and Binary Mixtures: Experimental and Machine Learning Study” (Molecules, 2023).
